Measured values as given in patent US11351134B2, “Small molecule agents, compositions, and formulations, for internal use, displaying inhibitory activity against gram-positive and/or gram-negative organisms” (NATUREZA, INC., priority 2017, dated 2022).

Experiments:
[1] = type: in vivo; conditions: mice, oral capsules approximately 4 mg active component in chitosan-containing particles, three times per day for seven days
Description: Laboratory trials have shown that no resistance has developed in pathogens exposed to the compositions described herein, even with long term, repeated exposure (data not shown). In addition, no intrinsic resistance can or has been detected in target pathogens. […] A placebo group is also included, in which a group of 10 mice are given a placebo set of capsules, orally, three times per day and continued for seven days, each of the placebo set of capsules containing similarly prepared chitosan-containing particles without an active component, the preparation being generally as described herein. Initial mice have been infected with Salmonella typhimurium prior to oral delivery of one of the set of capsules. The capsules may be vegetable capsules. The capsules may have an enteric coating. For delivery, a formulation may be prepared in a manner understood in the relevant art. For delivery, a formulation may be in at least any one or more of the following forms: liquid, capsule, dried powder, mist, and the like. For delivery, the formulation will contain pharmaceutical grade materials, including one or more excipients and or fillers for internal and/or topical delivery in sufficient amounts known to those of skill in the relevant art. Flavors, colors, sugars, sugar-substitutes, and the like may also be included in any of the formulations, as is understood to those of skill in the relevant art.

[2] = tested on: representative Gram-positive pathogens and yeast; experiment: Broth microdilution of lecithin/chitosan compositions, sonicated and/or filtered; type: cell-based; conditions: composition with lecithin and chitosan
Description: In a further preparation, lauric acid derivative, 12-aminododecanoic acid or 12-amino-1-dodecanoic acid methyl ester, was suspended individually (and independently) in an organic solvent, chloroform, and mixed with water, generally under agitated conditions. Here, for each sample, the amount of water to the amount of chloroform was at least 2:1, and was as high as 10:1. This was followed by chloroform evaporation, generally under vacuum using a freeze dryer. After removal of the chloroform, a lecithin solution was added to each sample. The lecithin was in a solution of acetic acid (e.g., 98 mM acetic acid and 2 mM sodium acetate), in which the amount of lecithin in solution was between about 1% to 5%. With addition of lecithin, each sample mixture contained up to about 4.8% lecithin (or generally about 5% or less), and up to about 7.8% of one of the lauric acid derivatives (or generally about 8% or less). pH of the solution was neutral. It is noted that the lecithin should be in a suitable form (e.g., solution or granules) acceptable for internal utilization (e.g., pharmaceutical grade). The lecithin may also include cholesterol, or other lecithin variants as described above, with similar results. Chitosan was then added to each of the samples, and each sample was then independently sonicated, followed by independent sterilization by high pressure filtration. […]

Escherichia coli = experiment: Broth microdilution (CLSI M07) of active component mixed with water only; type: cell-based; conditions: active component mixed with water only (miscible state); about 0.0009 wt. % to about 8 wt. %
Description: (§1) Initially, to determine basic characteristics, each active component was separately mixed, generally under agitated conditions, with water, and each was miscible with water. Each, after being mixed with water, was tested in a broth microdilution assay, against a variety of bacteria using amounts of the each of the lauric acid derivatives, ranging from about 0.0009 wt. % to about 8 wt. %. The bacteria included Escherichia coli, and Staphylococcus aureus (including MRSA strains). The minimum inhibitory concentration (MIC) needed to prevent growth of the target bacteria was evaluated based on a method published by Clinical Laboratory Standards Institute (CLSI), broth microdilution method M-07 (M07). […] Each of the samples containing one of the lauric acid derivatives was compared with a positive control, decanoic acid.

[3] = tested on: Staphylococcus aureus (including MRSA strains); experiment: as above; type: cell-based; conditions: active component mixed with water only (miscible state); about 0.0009 wt. % to about 8 wt. %
Description: as §1

SMILES: COC(=O)CCCCCCCCCCCN.Cl [12-amino-1-dodecanoic acid methyl ester HCl]
- Safety in animal trials [1]: no safety concerns
- Growth inhibitory activity against representative Gram-positive pathogens and yeast [2]: exhibited growth inhibitory activity
- Inhibitory activity against Gram-negative bacteria (e.g., E. coli) (Escherichia coli): does not, in the miscible state, demonstrate inhibitory activity
- Inhibitory activity against Gram-positive bacteria (e.g., S. aureus) [3]: does not, in the miscible state, demonstrate inhibitory activity
